Data reported in US20160083424A1, “COMPOSITIONS AND METHODS FOR TARGETING ANTIGEN-PRESENTING CELLS” (OSLO UNIVERSITETSSYKEHUS HF, priority 2013, published 2016).
Each block holds one molecule with its values, some of them ahead of it. Where no end group is shown, it is not given here. siRNA = not defined here

Experiments:
iDCs [1] = experiment: Binding and internalization of peptide-siRNA conjugates by microscopy; format: cell-based, human
Method: Then the medium was replaced with fresh medium and the cells were incubated with the peptides (5 μg/ml) for 60 min at 37° C. followed by 5 min incubation with Hoechst 33342 (Invitrogen Dynal AS, Oslo, Norway). The cells were washed twice with PBS and fixed with 4% paraformaldehyde for 15 min at 4° C. After washing, slides were covered with Dako cytomation fluorescent mounting medium and then images were taken with either epifluorescence (Leica DM RHC, Leica Microscopy As, Oslo, Norway) or confocal microscopy (Zeiss LSM 510, […]).
One of the major challenges to the clinical development of gene silencing by small interfering RNA (siRNA) is its effective delivery to target cells (Whitehead et al., Nat Rev Drug Discov 8, 129-138). Given the effective internalization of NW peptide by DCs, its potential to direct siRNAs to DCs was evaluated. First, a fluorescence labeled siRNA targeting mouse IL-10 was covalently conjugated to the NW-peptide (NW peptide with GGGSC (SEQ ID NO:43) linker) through a thiol linkage and then the binding of the conjugates to iDCs was investigated by epifluorescence microcopy. In contrast to free siRNA molecules, the peptide siRNA conjugates bound to DCs (FIG. 10A).

iDC = experiment: Competition of NW phage binding by synthetic peptides; set-up: species or system human
Method: (§1) In brief, aliquots of DCs (10^5) were divided into conical 96-well micro-plate, washed with PBS buffer containing 1% FCS, and then incubated with the amplified phages (≈10^9 TU) for 30-60 min on ice. After washing, cells were incubated with biotinylated anti-M13 monoclonal antibody (Abcam) and then with phycoerythrin (PE)-conjugated streptavidin. Competition assays were performed by pre-incubating DCs with different amounts of the peptides for 15 min on ice. Then NW phage (≈10^9 TU) was added and samples incubated for additional 60 min on ice. After washing, bound phages were detected as indicated above. Samples were analyzed by FACSCanto II flow cytometry.
To further investigate the importance of the NW peptide on phage binding, competition experiments were performed using synthetic peptides.

Monocytes = experiment: Competition of NW phage binding by NW peptide and its mutant peptides; set-up: species or system human; conditions: for competition with NW phage binding / peptide binding to monocytes: mutant peptides, four concentrations (0.4, 2, 8, 20 μM)
Method: as §1
To uncover the contribution of individual side chains and identify which amino acids are responsible for the NW peptide binding to monocytes and dendritic cells, alanine scanning was performed. Derivatives of the NW peptide were synthesized with exchange of each amino acid by alanine (FIG. 11A). These peptide derivatives were used to compete with the NW phage binding to monocytes. For each peptide, four concentrations were tested. Bound phage particles were detected with the use of biotin conjugated anti-M13 antibody and PE-conjugated streptavidin. The NW peptide (WT) competed effectively with the phage binding to monocytes with an IC50 of approximately 0.5 uM. The replacement of tryptophan (W) at position 2, 6, or 12 by a single alanine abolished the binding. Indeed, no significant competition with the phage binding was seen even at high peptide concentrations (C4=20 uM). Similarly, replacement of leucine (L) at position 4 or 7 by alanine inhibited the peptide binding (FIG. 11B).

iDCs [2] = experiment: Peptide binding by flow cytometry; set-up: species or system human
Method: The cells were seeded onto 24-well plate (3×10^5/well/0.5 ml) in X-vivo 15 medium and incubated overnight at 37° C. Subsequently, they were incubated with 6IAF-conjugated peptides (5 μg/ml) for 30 min at 37° C., gently scraped, washed 3 times and then analyzed by flow cytometry. Binding was also performed at 4° C.

[3] = tested on: autologous CD4 or CD8 T cells; experiment: Autologous stimulation of T lymphocytes by DCs exposed to targeted pp65 peptides, [3H] thymidine incorporation; format: cell-based, human; conditions: semi mDCs loaded at 4° C., HLA-A2+/CMV positive donors, 5 days
Method: (§2) Peptides at a concentration of 5 μg/ml were incubated with semi mDCs from HLA-A2/CMV-positive donors for 60 min at 4° C. Subsequently, they were washed to remove unbound peptides. Autologous stimulation was done in 96-well tissue culture plates in X-vivo 15 medium. Briefly, DCs were mixed with 10^5 autologous CD4 or CD8 T cells at a DC/lymphocytes ratios of 1/5 and 1/10 in a final volume of 250 μl. Cells were incubated for 5 days and then they were pulsed with [^3H] thymidine and harvested 16 h later. [^3H] thymidine incorporation was measured in a β-scintillation counter. In some experiments, the cells were cultured for 8 days and then stained with dextramers specific for pp65 NLVPMVATV (SEQ ID NO:19) epitope.
The capacity of the NW-pp65 fusion peptide (60-mer) to activate T cells from HLA-A2+/CMV positive donors was evaluated. It should be noted that the 48-mer pp65 peptide contains both MHC class I (e.g. NLVPMVATV) (SEQ ID NO:19) and class II (e.g. AGILARNLVPMVATV (SEQ ID NO:23), FFWDANDIYRI (SEQ ID NO:24)) epitopes, allowing the detection of CD4 and CD8 T-cell responses (24-26). […] All cultures were incubated at 37° C. for 5 days and T-cell activation was determined by measuring their proliferation potential (FIG. 6A). […]

[4] = tested on: CD8 T cells specific for the NLVPMVATV epitope; experiment: Dextramer staining of CD8 T cells after stimulation with peptide-exposed DCs; format: cell-based, human; conditions: DC-stimulated CD8 T cells, CMV positive donors, equal molar concentrations, n=3
Method: as §2
(§3) Dextramers with CMV (NLVPMVATV) (SEQ ID NO:19) and HIV (ILKEPVHGV) (SEQ ID NO:22) HLA-A2 specific antigens were obtained from Immudex (Copenhagen, Denmark). Antibodies against human CD8, CD19 and CD56 were obtained from eBioscience (San Diego, Calif., USA). […] Cells were washed and resuspended in SB containing 1% paraformaldehyd and analyzed on a BD SLR II flow cytometer. The data were analyzed using FCS Express (De Novo Software, Los Angeles, Calif., USA).

[5] = tested on: pp65-specific naïve T cells; experiment: Induction of CMV-pp65-specific T cells from naive donor repertoire, dextramer staining; format: cell-based, human; conditions: CD45RO-depleted PBMCs, HLA-A2+/CMV negative donors, IL-7, representative example
Method: (§4) PBMC from HLA-A2/CMV+ donors were thawed, washed and then incubated with the peptides (5 μg/ml) for 60 min at 4° C. Subsequently, the cells were washed twice and then plated at 2×10^5 cells per well in 96-well tissue culture plate. Cells were cultured for 5 days and subsequently they were pulsed with [^3H] thymidine and harvested 16 h later. In some experiments, the cells were cultured for 12 days and then stained with dextramers specific for pp65 NLVPMVATV (SEQ ID NO:19) epitope. Monocyte-depleted PBMCs were also used. To analyze primary immune responses against pp65 protein, PBMCs from HLA-A2+/CMV-negative donors were used. Autologous DCs were incubated with either NW-pp65 or GA-pp65 peptide (5 μg/ml) at 4° C. for 1 h, followed by three washes to remove unbound peptides. Subsequently, the cells were incubated with CD45RO-depleted PBMC (responder cells) and co-cultured for 10 days at ratio 1/10 (DC to responder cells) in X-vivo 15 medium supplemented with 10 ng/ml human IL-7 for 10 days. […]
as §3, with “Denmark).” for “Denmark). Antibodies against human CD8, CD19 and CD56 were obtained from eBioscience (San Diego, Calif., USA).”, “USA). […]” for “USA).”

PBMCs = experiment: Autologous stimulation of PBMCs with pp65 targeted peptides, [3H] thymidine incorporation; format: cell-based, human; conditions: whole PBMCs, peptides at 4° C., 5 days at 37° C.
Method: as §4, with “days. After 2 rounds of stimulation (8 days each) with autologous DC loaded with peptides, the cells were stained with dextramers specific for pp65 NLVPMVATV (SEQ ID NO:19) epitope. To test spontaneous uptake of peptides by DCs, PBMCs from HLA-A2+/CMV positive donors were incubated at 37° C. with various concentrations of untargeted or targeted pp65 peptide for 90 min.” for “days.”

[6] = tested on: CD8 T cells against NLVPMVATV epitope; experiment: Dextramer staining of CD8 T cells after PBMC stimulation with pp65 peptides; format: cell-based, human
Method: PBMC from HLA-A2/CMV+ donors were thawed, washed and then incubated with the peptides (5 μg/ml) for 60 min at 4° C. Subsequently, the cells were washed twice and then plated at 2×10^5 cells per well in 96-well tissue culture plate. Cells were cultured for 5 days and subsequently they were pulsed with [^3H] thymidine and harvested 16 h later. In some experiments, the cells were cultured for 12 days and then stained with dextramers specific for pp65 NLVPMVATV (SEQ ID NO:19) epitope. Monocyte-depleted PBMCs were also used. To analyze primary immune responses against pp65 protein, PBMCs from HLA-A2+/CMV-negative donors were used. Autologous DCs were incubated with either NW-pp65 or GA-pp65 peptide (5 μg/ml) at 4° C. for 1 h, followed by three washes to remove unbound peptides. Subsequently, the cells were incubated with CD45RO-depleted PBMC (responder cells) and co-cultured for 10 days at ratio 1/10 (DC to responder cells) in X-vivo 15 medium supplemented with 10 ng/ml human IL-7 for 10 days. After 2 rounds of stimulation (8 days each) with autologous DC loaded with peptides, the cells were stained with dextramers specific for pp65 NLVPMVATV (SEQ ID NO:19) epitope. To test spontaneous uptake of peptides by DCs, PBMCs from HLA-A2+/CMV positive donors were incubated at 37° C. with various concentrations of untargeted or targeted pp65 peptide for 90 min. Subsequently, the cells were washed to remove unbound peptides and cultured at 37° C. for 12 days and then stained with dextramers specific for pp65 NLVPMVATV (SEQ ID NO:19) epitope.
Dextramers with CMV (NLVPMVATV) (SEQ ID NO:19) and HIV (ILKEPVHGV) (SEQ ID NO:22) HLA-A2 specific antigens were obtained from Immudex (Copenhagen, Denmark). Antibodies against human CD8, CD19 and CD56 were obtained from eBioscience (San Diego, Calif., USA). Briefly, around 10^6 cells were washed and resuspended in 50 μl staining buffer SB (PBS with 0.1% human serum albumin and 0.1% NaN3) containing 1 mg/ml aggregated α-globulin and then stained with dextramer for 10 min in the dark at room temperature. Subsequently, antibodies against CD8, CD19 and CD56 were added and incubation continued for additional 20 min. Cells were washed and resuspended in SB containing 1% paraformaldehyd and analyzed on a BD SLR II flow cytometer. The data were analyzed using FCS Express (De Novo Software, Los Angeles, Calif., USA).
Monocytes have the capacity to differentiate into macrophages or inflammatory DCs in-vitro and in-vivo (Auffray et al., (2009) Annu Rev. Immunol. 27, 669-92). Given that the NW peptide bound to blood monocytes, it was investigated whether this binding affects T-cell activation. Therefore, proliferation assays were performed with whole PBMCs. […]

[7] = tested on: PBMC cultures from CMV-positive donors; experiment: IFN-γ production in PBMC cultures; format: cell-based, human; conditions: PBMCs from HLA-A2+/CMV positive
Method: (A) PBMCs from HLA-A2+/CMV-positive donors were incubated with the indicated fusion peptides for 60 min at 4° C., washed and then incubated at 37° C. for […]. T-cell proliferation was monitored by thymidine incorporation. (B) Dextramer staining of CD8 T cells against NLVPMVATV (SEQ ID NO:19) epitope. (C) As in A and B, but monocyte-depleted PBMCs were used. (D) INF-γ and IL-10 levels in PBMC culture supernatants determined by ELISA.
Next, the immunostimulatory potential of the NW-pp65 fusion peptide was evaluated by assessing its ability to stimulate the overall IFN-γ and IL-10 production in PBMC cultures from CMV-positive donors (FIG. 8D).

iDCs [8] = experiment: Phage binding by flow cytometry; set-up: species or system human; conditions: binding of the phage clones to iDC, flow cytometry
Method: as §1

[9] = molecular target: NW peptide receptor (human); experiment: competition with NW phage binding to monocytes, flow cytometry

Molecule: peptide siRNA conjugates: fluorescence labeled siRNA targeting mouse IL-10 covalently conjugated to NW peptide with GGGSC linker through a thiol linkage (NWYLPWLGTNDWGGGSC(siRNA); not fully specified; reading uncertain)
- intracellular delivery of peptide-siRNA conjugates (iDCs [1]; confocal microscopy): confirmed the intracellular delivery
- binding of peptide siRNA conjugates to DCs (iDCs [1]; epifluorescence microscopy, iDCs): bound to DCs

Molecule: GALDTTHHRPWTC [control peptide, irrelevant control peptide, reference compound]
- binding of 6-IAF-conjugated peptides to iDCs (iDCs [2]; 4° C. and 37° C.): no significant binding
- inhibition of the phage binding to iDC by synthetic peptides (iDC): but not an irrelevant control peptide, effectively inhibited

Molecule: GALDTTHHRPWTGCFTWPPWQAGILARNLVPMVATVQGQNLKYQEFFWDANDIYRIFAEL [GA-60-mer, 48-mer CMV pp65 peptide fused to control peptide, reference compound]
- T-cell activation (proliferation, [3H]-thymidine) [3]: no significant effect
- dextramer-positive CD8 T cells specific for NLVPMVATV [4]: 0.51%
- pp65-specific naïve T cells (dextramer staining) [5]: 0.01%
- T-cell proliferation ([3H]-thymidine) (PBMCs): did not
- CTL response (dextramer staining) ([6]; monocyte-depleted PBMCs): 0.53%
- CTL response (dextramer staining) ([6]; whole PBMCs, n=3): 0.45%
- proportion of CD8 and CD4 T cells that produced IFN-γ [7]: very low response

Molecule: NWYLPWLGTNDWAGILARNLVPMVATVQGQNLC [NW-33-mer, CMV pp65 peptide fused to NW peptide]
- binding of 6IAF-conjugated pp65 fusion peptides to DCs (iDCs [2]; iDCs): bound to iDCs

Molecule: GETRAPL [DC19]
- Binding (iDCs [8]): +++ (binding <80%: +++)

Molecule: QLPRTAL [DC10]
- Binding (iDCs [8]): +++ (binding <80%: +++)

More lines, now with the values ahead:

- inhibition of the phage binding to iDC by synthetic peptides (iDC): failed to reduce binding
Molecule: NWYGAGAGTNDW [NW-mutant, NW-peptide lacking the motif LPWL]

- mean fluorescence of bound phage (Monocytes; at C3 concentration (8 μM), unstained cells 250): ~250
- competition with NW phage binding / peptide binding to monocytes (Monocytes): effectively competed
Molecule: N10D11 double mutant: NW peptide with asparagine 10 and aspartic acid 11 both replaced by alanine (NWYLPWLGTAAW)

- reduction in IC50 relative to NW peptide (Monocytes; monocytes): approximately 20 fold
- competition with NW phage binding / peptide binding to monocytes (Monocytes): reduced the binding
Molecule: Deletion of N10D11: NW peptide with N10 and D11 deleted; likely NWYLPWLGTW (SEQ ID NO:38)

- Binding (iDCs [8]): +++ (binding <80%: +++)
Molecule: SPGLSLVSHMQT [DC13]

- Binding (iDCs [8]): ++++ (Binding >80-100%: ++++)
Molecule: QWELPWLMQPPL [DC6]

- IC50 [9]: 500 nM
Molecule: NWYLPWLGTNDWC (also: carries 6-iodoacetamidofluorescein in direct binding assays) [NW peptide]
